Measured values published in US20240327829A1, “CONJUGATE OF SAPONIN, OLIGONUCLEOTIDE AND GALNAC” (priority 2020, published 2024).
Where two headings read alike, the source gives them in different places. [BNA] = bridged nucleic acid (BNA) nucleotide, BNA type not stated for this oligo; [BNANC] = BNA^NC (2'-O,4'-aminoethylene bridged) nucleotide; {C6SH} = thiol C6 linker; d = 2'-deoxy (DNA)

Experiments:
[1] = Endosomal escape enhancing activity of saponin; conditions: compared with SO1861
[2] = tested on: primary human hepatocytes; experiment: Cell viability of primary human hepatocytes; assay type: cell-based; conditions: combined with 10 pM CD71-saporin
Description: Briefly, the MTS solution was diluted 20× in DMEM without phenol red (PAN-Biotech GmbH) supplemented with 10% FBS. The cells were washed once with 200 μL/PBS well, after which 100 μL diluted MTS solution was added/well. The plate was incubated for approximately 20-30 minutes at 37° C.

[3] = tested on: apoB gene expression in Huh7 cells; experiment: ApoB gene silencing (gene expression analysis); assay type: cell-based, human; conditions: for IC50: + fixed 4000 nM trivalent-GalNAc-L-SO1861 (DAR1)
Description: (§1) RNA from cells was isolated and analysed according to standard protocols (Biorad). qPCR primers that were used are indicated in Table A2.
(§2) RNA isolation and gene expression analysis from primary mouse and human hepatocytes RNA from cells was isolated using TRI Reagent® Solution (Thermo Scientific) according to the manufacturer's instruction. Conversion into cDNA was performed using iScript™ cDNA Synthesis Kit (BioRad) using standard protocols. ApoB expression levels and levels of specific hepatocyte housekeeping genes were determined using quantitative real-time PCR assays (qRT-PCR) using iTaq™ Universal SYBR® Green Supermix (BioRad) and the Light Cycler 480 (Roche Diagnostics, Rotkreuz, Switzerland) with specific DNA primers, listed in Table A4 (study A) and Table A7 (study B), respectively. Analysis was done by the […] to determine apoB expression relative to 2 hepatocyte-specific housekeeping control mRNAs. Each analysis reaction was performed in triplicate.

[4] = tested on: apoB protein expression in Huh7 cells; experiment: apoB protein expression in Huh7 hepatocyte cell line; assay type: cell-based, human
[5] = tested on: apoB mRNA in primary human hepatocytes; experiment: apoB mRNA expression analysis in primary human hepatocytes; assay type: cell-based; conditions: read-out: apoB RNA levels IC50
Description: as §1, §2

apoB RNA in liver tissue = experiment: ApoB expression analysis in liver tissue (qRT-PCR); assay type: in vivo, C57BL/6J mice; conditions: for apoB RNA levels in liver, reduction compared to vehicle: Study A
Description: (§3) • i. Dose administration and in-life phase. Per group, 8 C57BL/6J male mice for treatment groups (in Study A, 14 mice in vehicle control group), approximately 6-7 weeks at arrival and 8-9 weeks at dosing, were dosed. The compounds, formulated in PBS or PBS alone (vehicle) according to Table A5 and Table A6, were dosed at 5 ml/kg in the tail vain (intravenously, iv), with dose volumes corresponding to the individual bodyweights. Where applicable, trivalent (GalNAc)3-SO1861 (EMCH) was co-administered at 5 ml/kg in the tail vain (iv) right after the trivalent GalNAc-ApoB conjugate. Animals were weighed weekly and clinical observations were performed 2-3 times daily within the first 48 hrs, and at least once daily thereafter until study end. • ii. Sampling of serum, liver, and kidney tissue. […] At the relevant inter-study post-dose timepoints, 3 animals per timepoint per treatment group (6 animals in the vehicle control group in Study A) were sacrificed to collect terminal bleeds and collect relevant organs, such as liver and kidney tissues for further analyses. at end of study, the remaining 2 animals (4 in the control group in Study A) per group were sacrificed. One half of the liver and one kidney was frozen and used for tissue RNA analysis.
The mRNA was isolated from frozen liver tissue using TRzol® Reagent (Thermo Scientific) according to the manufacturer's instruction. Conversion into cDNA was performed using Script™ cDNA Synthesis Kit (BioRad). ApoB expression levels and levels of specific liver housekeeping genes were determined using quantitative real-time PCR assays (qRT-PCR) using iTaq™ Universal SYBRO Green Supermix (BioRad) and the Light Cycler 480 (Roche Diagnostics, Rotkreuz, Switzerland) with specific DNA primers, listed in Table A4 (Study A) and Table A7 (Study B), respectively. Analysis was done by the ΔCt method to determine apoB expression relative to 2 liver-specific housekeeping control mRNAs. Each analysis reaction was performed in triplicate.

apoB protein = experiment: Serum apoB protein analysis (ELISA); assay type: in vivo, C57BL/6J mice; conditions: Study B; 72 hrs; 2 mg/kg iv; vehicle 156 μg/ml
Description: as §3, with “Where applicable, trivalent (GalNAc)3-SO1861 (EMCH) was co-administered at 5 ml/kg in the tail vain (iv) right after the trivalent GalNAc-ApoB conjugate.” left out
ApoB protein levels in mouse serum was determined using an ApoB ELISA (ab230932, Abcam, Cambridge, UK), according to the manufacturer's instruction.

[6] = In vivo tolerability (clinical observations, body weight); set-up: species or system C57BL/6J mice; conditions: Study A; doses and regimens of Table A5
Description: as §3

LDL-cholesterol = experiment: Serum LDL-cholesterol (LDL-C) analysis; assay type: in vivo, C57BL/6J mice; conditions: for serum LDL-C reduction compared to vehicle: Study A
Description: as §3
LDL-cholesterol was measured in mouse serum, using an LDL-cholesterol specific two-step AU480 assay kit, respectively, from Beckman Coulter, with a photometric measurement according to the manufacturer's instructions.

[7] = tested on: apoB gene expression in HepG2 cells; experiment: ApoB gene silencing (gene expression analysis); assay type: cell-based, human
Description: as §1, §2

[8] = tested on: HSP27 gene expression in HepG2 cells; experiment: HSP27 gene silencing (gene expression analysis, qPCR); assay type: cell-based, human; conditions: + fixed 4000 nM SO1861-EMCH
Excerpt: as §1

[9] = tested on: HSP27 gene expression in Huh7 cells; experiment: as above; assay type: cell-based, human; conditions: + fixed 4000 nM SO1861-EMCH
Excerpt: as §1

[10] = + 300 nM TrivalentGalNAc-SPT001
[11] = + fixed 4000 nM trivalent-GalNAc-L-SO1861 (DAR1)

Compound: CC(=O)OC1C(C)OC(OC2C(C)OC(OC(=O)[C@]34CCC(C)(C)CC3C3=CCC5[C@@]6(C)CC[C@H](OC7OC(C(=O)O)C(O)C(OC8OCC(O)C(O)C8O)C7OC7OC(CO)C(O)C(O)C7O)[C@@](C)(C=O)C6CC[C@@]5(C)[C@]3(C)C[C@H]4O)C(OC3OC(C)C(OC4OCC(O)C(OC5OCC(O)C(O)C5O)C4O)C(OC4OCC(O)C(O)C4O)C3O)C2O)C(O)C1O (some centres unmarked) [SO1832]
- endosomal escape enhancing activity towards an oligonucleotide (or protein toxin) in the endosome [1]: about equally active as SO1861

Compound: CC(=O)OC1C(C)OC(OC2C(C)OC(OC(=O)[C@]34CCC(C)(C)CC3C3=CCC5[C@@]6(C)CC[C@H](OC7OC(C(=O)O)C(O)C(OC8OCC(O)C(O)C8O)C7OC7OC(CO)C(O)C(O)C7O)[C@@](C)(/C=N/NC(=O)CCCCCN7C(=O)C=CC7=O)C6CC[C@@]5(C)[C@]3(C)C[C@H]4O)C(OC3OC(C)C(OC4OCC(O)C(OC5OC(CO)C(O)C(O)C5O)C4O)C(O)C3O)C2O)C(O)C1OC1OCC(O)C(O)C1O (some centres unmarked) [SO1861-EMCH]
- increase of potency (factor) when cell viability of liver cells is considered [2]: ~10

Compound: (GalNAc)3-ApoB: trivalent GalNAc conjugated with ApoB antisense BNA oligonucleotide (SEQ ID NO: 2); linker type not stated (GCCTCAGTCTGCTTCGCACC; sugars from the 5' end [BNA]5 d10 [BNA]5, backbone and methylation of C not given here; further chemistry not fully specified)
- lowering of apoB mRNA expression [3, 10]: neither TrivalentGalNAc-ApoBBNA, nor the combination of TrivalentGalNAc-ApoBBNA and TrivalentGalNAc-SPT001 induce lowering
- lowering of apoB mRNA expression ([3]; alone): neither TrivalentGalNAc-ApoBBNA, nor the combination of TrivalentGalNAc-ApoBBNA and TrivalentGalNAc-SPT001 induce lowering
- lowering of apoB protein expression [4, 10]: neitherTrivalentGalNAc-ApoBBNA, northe combination ofTrivalentGalNAc-ApoBBNA and TrivalentGalNAc-SPT001 induced marked lowering
- lowering of apoB protein expression ([4]; alone): neitherTrivalentGalNAc-ApoBBNA, northe combination ofTrivalentGalNAc-ApoBBNA and TrivalentGalNAc-SPT001 induced marked lowering

Compound: ApoB #02 BNA: BNA^NC oligonucleotide 5′-GCattggtatTCA-3′ [SEQ ID NO: 12], fully phosphorothioated, murine and human sequence-compatible, apoB-targeting (GCATTGGTATTCA; sugars from the 5' end [BNANC]2 d8 [BNANC]3, all phosphorothioate, 5' {C6SH}, methylation of C not given here)
- IC50 ([5]; relative ApoB #02 BNA concentration, no transfection agent): 0.4 µM
- IC50 ([5]; transfection with RNAi-MAX): 0.008 µM
- apoB RNA levels in liver, reduction compared to vehicle (apoB RNA in liver tissue; 24 hrs, 0.1 mg/kg iv): not noticeably reduced
- apoB RNA levels in liver, reduction compared to vehicle (apoB RNA in liver tissue; 24 hrs, 1 mg/kg iv): ~15%
- apoB RNA levels in liver, reduction compared to vehicle (apoB RNA in liver tissue; 24 hrs, 2 mg/kg iv): ~21%
- apoB RNA levels in liver, reduction compared to vehicle (apoB RNA in liver tissue; 72 hrs, 2 mg/kg iv): 39%
- apoB RNA levels in liver, reduction compared to vehicle (apoB RNA in liver tissue; 336 hrs, 2 mg/kg iv): 30%
- apoB RNA levels in liver, % of vehicle control (apoB RNA in liver tissue; Study B, 72 hrs, 2 mg/kg iv): 53%
- serum apoB protein level (apoB protein): 57 µg/mL
- tolerability [6]: well tolerated
- serum LDL-C reduction compared to vehicle (LDL-cholesterol; 24 hrs, 0.1 mg/kg iv): not noticeably reduced
- serum LDL-C reduction compared to vehicle (LDL-cholesterol; 24 hrs, 1 mg/kg iv): not noticeably reduced
- serum LDL-C reduction compared to vehicle (LDL-cholesterol; 24 hrs, 2 mg/kg iv): not noticeably reduced
- serum LDL-C reduction compared to vehicle (LDL-cholesterol; 72 hrs, 2 mg/kg iv): ~50%
- serum LDL-C reduction compared to vehicle (LDL-cholesterol; 336 hrs, 2 mg/kg iv): ~40%
- serum LDL-C level (LDL-cholesterol; Study B, 72 hrs, 2 mg/kg iv, vehicle 4 mg/dl): 2 mg/dL

Compound: trivalent-GalNAc-L-ApoBBNA: ApoBBNA (SEQ ID NO: 2) conjugated to trivalent-GalNAc, labile conjugation (GCCTCAGTCTGCTTCGCACC; sugars from the 5' end [BNA]5 d10 [BNA]5, backbone and methylation of C not given here; further chemistry not fully specified)
- IC50 [3]: 0.7 µM
- IC50 ([7]; + fixed 4000 nM SO1861-EMCH): 0.01 µM
- IC50 [7, 11]: 0.05 µM

Compound: trivalent-GalNAc-L-HSP27BNA: HSP27BNA (SEQ ID NO: 1) conjugated to trivalent-GalNAc, labile conjugation (GGCACAGCCAGTGGCG; sugars from the 5' end [BNANC]3 d10 [BNANC]3, backbone and methylation of C not given here; further chemistry not fully specified)
- IC50 [8]: 0.0001 µM
- IC50 [9]: 0.003 µM

Compound: trivalent-GalNAc-S-ApoBBNA: ApoBBNA (SEQ ID NO: 2) conjugated to trivalent-GalNAc, stable conjugation (GCCTCAGTCTGCTTCGCACC; sugars from the 5' end [BNA]5 d10 [BNA]5, backbone and methylation of C not given here; further chemistry not fully specified)
- IC50 [3]: 0.7 µM
- IC50 ([7]; + fixed 4000 nM SO1861-EMCH): 0.01 µM
- IC50 [7, 11]: 0.05 µM

Compound: trivalent-GalNAc-S-HSP27BNA: HSP27BNA (SEQ ID NO: 1) conjugated to trivalent-GalNAc, stable conjugation (GGCACAGCCAGTGGCG; sugars from the 5' end [BNANC]3 d10 [BNANC]3, backbone and methylation of C not given here; further chemistry not fully specified)
- IC50 [8]: 0.0001 µM
- IC50 [9]: 0.003 µM
